Experimental data as given in US20240182525A1, “NOVEL BICYCLIC COMPOUND, OPTICAL ISOMER THEREOF OR PHARMACEUTICALLY ACCEPTABLE SALT THEREOF, USE THEREOF, AND PREPARATION METHOD THEREFOR” (KOREARESEARCH INSTITUTE OF BIOSCIENCE AND BIOTECHNOLOGY, priority 2021, published 2024).

What was measured:
[1] = Cytotoxicity assay, MDA-MB-435; assay type: cell-based; settings: human, MDA-MB-435 cells (printed as oral cancer); MDA-MB-435, 48 hours, maximum concentration 100 μM
Method: To measure the cytotoxicity of the compound represented by Chemical Formula 1 (Chemical Formula 1-1), toxicity was measured in mouse preadipocyte 3T3-L1 cell line, human malignant melanoma A375 cell line, mouse malignant melanoma B16F10 cell line, human oral cancer MDA-MB-435 cell line, mouse breast cancer 4T1 cell line, human breast cancer MCF7 cell line, human brain cancer U87MG cell line, human glioblastoma U373MG cell line, human cervical cancer HeLa cell line, mouse embryonic fibroblast (MEF) cell line, human embryonic kidney HEK293T cell line (Korea Cell Line Bank). First, 1×10^4 cells were divided into 200 μl each in a 96-well plate using Dulbecco's Modified Eagle's Medium (DMEM) supplemented with 10% fetal bovine serum (FBS), […] streptomycin, and 50 U/ml penicillin, while maintaining various cells at 37r in an atmosphere of 5% CO2. The cells were treated with the compound of Chemical Formula 1-1 of the present invention at a maximum concentration of 100 μM and cultured for 48 hours under the same culture conditions. After the incubation, the culture media were removed and the cytotoxicity test results were confirmed (Table 2 and FIG. 3 below).

3T3-L1 cells = assay: Cytotoxicity in 3T3-L1 cells in L-conditional or Wnt3a-containing culture media; assay type: cell-based, mouse; settings: 2.5 to 10 μM, Wnt3a-containing culture media (2.5%), FIG. 3
Method: Next, in order to confirm the cytotoxicity in the Chemical Formula 1-1 and wnt3 culture, toxicity in 3T3-L1 cells was measured on the compound of Chemical Formula 1-1 of the present invention at a concentration of 2.5 to 10 μM in L-conditional media or Wnt3a-containing culture media (2.5%).

[2] = test system: adipocyte differentiation-associated proteins in the 3T3-L1 cell line; assay: Western blotting of adipocyte differentiation-associated proteins; assay type: cell-based, mouse; settings: 7.5 μM, FIG. 10
Method: Additionally, in order to verify the adipogenesis inhibitory ability of the Chemical Formula 1 according to the present invention, the level of adipocyte differentiation-associated proteins in the 3T3-L1 cell line was measured. The 3T3-L1 cells were cultured in a 6-well plate (2×10^5 cell/well), and the next day, the cells were replaced with normal culture media (Undifferentiated media; UND) and differentiation induction media (Differentiation media; DM), respectively, followed by treatment with the compound of Chemical Formula 1-1 at 7.5 μM for 48 hours, and then the cells were replaced with new normal culture media (Maintaining media; MM). When replacement with normal culture media, the cells were treated with 7.5 μM of Chemical Formula 1-1, and cultured for 72 hours more, followed by Western blotting.

MC3T3-E1 cell line = assay: Cytotoxicity assay in MC3T3-E1 pre-osteoblasts; assay type: cell-based, mouse; settings: concentration range of 50 μM or less, 7 days, FIG. 14
Method: In order to measure the cytotoxicity of the compound represented by Chemical Formula 1 (Chemical Formula 1-1), toxicity was measured in the MC3T3-E1 cell line (Korea Cell Line Bank), which is a pre-osteoblast related to bone formation.
Specifically, a cytotoxicity test was performed to determine the in vivo safety of Chemical Formula 1-1 above. MC3T3-E1 cells, which are mouse osteoblasts, were inoculated into a 96-well plate at a concentration of 5×10^3 cell/well, and incubated overnight in growth media containing alpha-minimum essential media (alpha-MEM, JBI #008-53) supplemented with 10% fetal bovine serum (FBS, Gibco #16000, USA) and 1× antibiotics (Gibco #15240062, USA). […] After incubation, the media were removed, 90 μl of the media and 10 μl of WTS solution were added, and after 1 hour, the absorbance was measured at 450 nm using a microplate reader.

## CC(C)CC1NC(=O)C2CCCN2C(=O)C(C(O)C(C)C)NC(=O)CNC(=O)C(C(C)O)NC(=O)C2NC(=O)C(NC(=O)/C=C/c3ccccc3C(O)C(C)O)C(C)OC(=O)C(CC(N)=O)NC(=O)C(NC(=O)C(O)NC1=O)C(O)c1ccc(O)c(c1)Oc1ccc2cc1 (centres unmarked) [Chemical Formula 1-1]
[1]
  IC50 at 48 h: > 100 µM
3T3-L1 cells
  cytotoxicity: cytotoxicity was not observed
[2]; compound alone, differentiated adipocytes
  level of adipogenesis induction-associated proteins: lower protein levels
[2]; simultaneous treatment with Wnt3a-conditional media (2.5%)
  level of adipogenesis induction-associated proteins: lower protein levels
MC3T3-E1 cell line
  cytotoxicity: did not exhibit cytotoxicity
